Values quoted from earlier work as cited in patent US5616615A, “Enaminone esters” (priority 1995, dated 1997).

Conditions: Kase et al., Jap. J. Pharmacol. 1974; cited from earlier work

Row | SMILES | pharmacological actions
1 | CC1(C)CC(=O)C(CN2CCCCC2)=C(Nc2ccccc2Cl)C1 [MK 1-203, 5,5-dimethyl-3-(o-chloro)phenylamino-2-(N-piperidinylmethyl)cyclohex-2-ene-1-one] | potent analgesics with morphine-like, as well as anticonvulsant and papaverine-like, actions
2 | COc1cccc(C2=C(CN(C)CCc3ccccc3)C(=O)CC(C)(C)C2)c1 [MK 1-907, 5,5-dimethyl-3-(m-methoxy)phenyl-2-N-methyl-N-phenethylaminomethylcyclohex-2-ene-1-one] | potent analgesics with morphine-like, as well as anticonvulsant and papaverine-like, actions
